One experiment deals with Aβ (1-42) fibril (Homo sapiens, UniProt P05067). In words: in vitro sink-like Aβ assay: Aβ dissolved from fibril in presence of compound, Aβ ELISA of supernatant. Conditions: Aβ (1-42) fibril pellets, PBS containing compound, 37° C. for one day, supernatant by Aβ ELISA; control (PBS without compound) = 1. The experiment is classed as biochemical. The procedure:
Sandwich ELISA for Aβ (1-40) and Aβ (1-42) was performed using an Aβ (1-40) ELISA kit and Aβ (1-42) ELISA kit (Biosoure, IBL, Signet Laboratories and the like). […] The peptide was incubated for several days at 37° C. until fibrillization was completed. After centrifugation at 22° C. (15,000×g, 10 min), the supernatant was removed. The obtained pellets were gradually and carefully washed 3 times with PBS. Fresh PBS (20 μl) was carefully and gradually added to the pellets. The sample was incubated at 37° C. for one day. After centrifugation (15,000×g, 10 min) at 22° C., the supernatant was removed. […] The sample was incubated at 37° C. for one day.

In the next experiment the test system is tau. Conditions: Taniguchi et al., J Biol Chem 2005; cited from earlier work.
The next experiment deals with Aβ. Conditions: in vitro; Ono, Biochim Biophys Acta 2004; cited from earlier work.
The test system of experiment [1] is protease-resistant protein (PrP-res). Conditions: cited from earlier work.

Results on six compounds are retold here after US20090087916A1, “Assay method for identifying drug candidate” (AnGesMG, Inc., priority 2004, published 2009).

Sequence of Aβ (1-42) fibril (P05067 672-713): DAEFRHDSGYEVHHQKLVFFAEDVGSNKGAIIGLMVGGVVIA

For the compound `CNc1ccc2nc3ccc(=[N+](C)C)cc-3sc2c1.[Cl-]` [azure B], the “average (ratio of Aβ dissolved from fibril when the control is 1)” value on Aβ (1-42) fibril turned out to be 2.1701. The “inhibition of tau filament formation” value in the experiment with tau is “inhibit tau filament formation”. Turning to `CCN(CCO)c1ccc(/N=N/c2sc3cc(OC)ccc3[n+]2C)cc1` [basic blue 41], the “average (ratio of Aβ dissolved from fibril when the control is 1)” value on Aβ (1-42) fibril is listed as 2.299. Still for that read-out and setting: the result for `COc1cc(/C=C/C(=O)CC(=O)/C=C/c2ccc(O)c(OC)c2)ccc1O` [curcumin] reads 2.4691.

For `O=c1c(O)c(-c2cc(O)c(O)c(O)c2)oc2cc(O)cc(O)c12` [myricetin], the “average (ratio of Aβ dissolved from fibril when the control is 1)” value at Aβ (1-42) fibril is given as 1.3196. For the same compound, in the experiment on Aβ, the “inhibitory action on the formation or elongation of Aβ” value is reported as “in vitro inhibitory action on the formation or elongation of Aβ”. For `O=C(OC[C@H]1O[C@@H](OC(=O)c2cc(O)c(O)c(OC(=O)c3cc(O)c(O)c(O)c3)c2)[C@H](OC(=O)c2cc(O)c(O)c(OC(=O)c3cc(O)c(O)c(O)c3)c2)[C@@H](OC(=O)c2cc(O)c(O)c(OC(=O)c3cc(O)c(O)c(O)c3)c2)[C@@H]1OC(=O)c1cc(O)c(O)c(OC(=O)c2cc(O)c(O)c(O)c2)c1)c1cc(O)c(O)c(OC(=O)c2cc(O)c(O)c(O)c2)c1` [tannic acid], the “average (ratio of Aβ dissolved from fibril when the control is 1)” value on Aβ (1-42) fibril is on record as 1.3969. Besides, the “inhibitory action on the formation or elongation of Aβ” value in the experiment on Aβ is on record as “in vitro inhibitory action on the formation or elongation of Aβ”.

Consider ferric dehydroporphyrin IX, for which, at Aβ (1-42) fibril, the “average (ratio of Aβ dissolved from fibril when the control is 1)” value came to 1.4124. In experiment [1], the “inhibition of formation of protease-resistant protein (PrP-res)” value was “inhibit in vitro the formation of a protease-resistant protein (PrP-res)”. Further, the “inhibition of tau filament formation” value in the experiment with tau is “inhibits tau filament formation”.
